Holding throughout (type): cell-based
Experiment [1] relates to PSA protein. Put plainly: PSA protein expression in LNCaP cells (Western blotting). Particulars: 100 μM, about 48 hours, R1881 0.5 nM. As for the experimental part:
The amount of PSA protein expression levels was measured in cells from the prostate cancer cell line LNCaP, after treatment with either control, or about 1 to 100 μM of each of the four FTA compounds identified in the screen (Compounds 1-4). The protein was quantified by an immunohistochemical method using photodetection.
LNCaP cells were maintained in RPMI-1640 medium containing 10% fetal bovine serum. Forty eight hours prior to the experiment, cells were washed several times in serum-free medium and then cultured in RPMI-1640 medium containing 10% charcoal-stripped fetal bovine serum (to remove endogenous androgens). After 48 hours in this medium, Compound 2 was added in a range of concentrations (0, 3, 10, 30, and 100 μM) for 24 hours, at which time the synthetic androgen, methyltrienolone (R1881), (Sigma, St. Louis, Mo.) was added (0.5 nM). After an additional 48 hours, cells were lysed as described in Yano A., et al., Proc. Natl. Acad. Sci. USA, 105:15541-46 (2008), and PSA protein was monitored by polyacrylamide gel electrophoresis and Western blotting with an anti-PSA antibody (sc-80304, Santa Cruz Biotechnology).
(Immunoblotting shows a protein as a band on a membrane.)

In experiment [2] the test system is PSA mRNA. Put plainly: PSA mRNA quantitation in LNCaP cells (RT-PCR). Particulars: 100 μM, 24 hours, R1881. The method, then: For PSA mRNA determination, cells were cultured and treated identically, except that lysis for mRNA extraction was performed 24 hours after addition of R1881. Total RNA was isolated using protocols and reagents contained in the Qiagen RNeasy Kit (Valencia, Calif.). TaqMan real-time quantitative RT-PCR analysis of PSA was performed using previously described techniques Hong J A, et al., Cancer Res., 65:7763-74 (2005); Guo F, et al., Cancer Res., 65:10536-44 (2005). The amount of PSA mRNA level and total protein in cells from the prostate cancer cell line LNCaP was measured after treatment with either control, or about 1 to 100 μM of each of the four compounds identified in the screen (Compounds 1-4). It was known that the expression of PSA mRNA in LNCaP cells is driven by an androgen receptor mediated pathway. The mRNA is quantified by a photodetection method over time. […] At 100 μM, mRNA expression was decreased to 40% of control levels.

The target in experiment [3] is T1, AR (Homo sapiens, UniProt P10275, T878A).
T1 construct: endogenous in cells; host or cells: LNCaP
T1 sequence (P10275 1-920 T878A): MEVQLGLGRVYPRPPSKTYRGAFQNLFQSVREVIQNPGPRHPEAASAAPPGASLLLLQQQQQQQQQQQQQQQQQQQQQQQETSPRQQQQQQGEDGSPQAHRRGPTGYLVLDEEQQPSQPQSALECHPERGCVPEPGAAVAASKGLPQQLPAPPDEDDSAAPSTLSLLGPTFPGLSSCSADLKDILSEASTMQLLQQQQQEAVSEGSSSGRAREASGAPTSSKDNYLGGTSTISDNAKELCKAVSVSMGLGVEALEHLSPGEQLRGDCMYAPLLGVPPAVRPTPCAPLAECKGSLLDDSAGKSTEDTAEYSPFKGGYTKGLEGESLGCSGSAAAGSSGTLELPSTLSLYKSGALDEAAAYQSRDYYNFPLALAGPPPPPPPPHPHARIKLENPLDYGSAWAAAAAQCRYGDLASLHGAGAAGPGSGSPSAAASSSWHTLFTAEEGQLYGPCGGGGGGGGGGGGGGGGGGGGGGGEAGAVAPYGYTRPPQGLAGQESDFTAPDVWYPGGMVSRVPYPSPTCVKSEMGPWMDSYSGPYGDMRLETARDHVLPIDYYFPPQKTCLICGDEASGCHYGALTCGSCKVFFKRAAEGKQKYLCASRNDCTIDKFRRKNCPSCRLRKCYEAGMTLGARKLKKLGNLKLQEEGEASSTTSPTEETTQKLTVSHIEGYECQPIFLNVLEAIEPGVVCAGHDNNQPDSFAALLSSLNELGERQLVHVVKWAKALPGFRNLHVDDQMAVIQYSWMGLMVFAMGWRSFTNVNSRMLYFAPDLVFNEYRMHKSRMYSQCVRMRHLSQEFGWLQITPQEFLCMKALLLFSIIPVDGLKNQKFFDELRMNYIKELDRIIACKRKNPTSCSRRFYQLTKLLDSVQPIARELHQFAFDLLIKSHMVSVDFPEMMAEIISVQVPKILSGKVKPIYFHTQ
Put plainly: AR nuclear translocation in LNCaP cells. The settings on record: about 30 μM pre-treatment 24 hours, R1881 0.1 nM 2 hours. As for the experimental part:
LNCaP cells were maintained as above. At 50% confluence, cells were washed several times in serum-free RPMI-1640 medium, and re-cultured for 48 hours in RPMI-1640 medium containing 10% charcoal-stripped fetal bovine serum. At that time, compound 2 (termed 21D1C in FIG. 7) was added to a final concentration of about 30 μM. After an additional 24 hours, R1881 was added (0.1 nM) and cells were cultured for an additional 2 hours. At that time, cells were lysed and separated into nuclear and cytosolic fractions following published methods (Schreiber, et al., Nucleic Acids Res., 17:6419 (1989)). Quantification of AR in nucleus and cytosol was performed by Western blotting with an AR-specific antibody following polyacrylamide gel electrophoresis.

Molecules are shown by their SMILES.

On to `O=C(Nc1cccc(Cl)c1Cl)C1CCCCC1` [Compound 2], for which the “PSA protein expression (printed as mRNA expression)” value in experiment [1] was 20 % of control levels. Also, the “PSA mRNA expression” value in experiment [2] is given as 40 % of control levels. In addition, the “ligand-dependent nuclear translocation of AR” value in experiment [3] is reported as “significantly prevented”.

These data come from patent publication US9782399B2, “Pharmaceutical compositions which inhibit FKBP52-mediated regulation of androgen receptor function and methods of using same” (The United States of America, as represented by the …, priority 2009, dated 2017).
